Measured values from US4315023A, “1-Phenethylimidazole derivatives” (Westwood Pharmaceuticals, Inc., priority 1980, dated 1982).

Experiments:
Streptococcus pyogenes = assay: in vitro antibacterial activity (MIC), S. pyogenes; format: cell-based; conditions: 50% Nutrient Broth + 5% human serum
S. faecalis = assay: in vitro antibacterial activity (MIC), S. faecalis; format: cell-based, Streptococcus faecalis; conditions: Enterococcus faecalis; Nutrient Broth
Staphylococcus aureus = assay: in vitro antibacterial activity (MIC), S. aureus; format: cell-based; conditions: Nutrient Broth
Trichophyton quinekeanum = Trichophyton quinekeanum induced skin infection in guinea pigs; format: in vivo, male guinea pigs; conditions: for EC50, Trichophyton Skin Infection: Table I, percentage drug concentration giving 50% of the score of untreated control, topical ointment; for Score, Determ. F / Score, Determ. G / Score, Mean: lesion score 0-4
Procedure: In the guinea pig skin infection test, Trichophyton quinekeanum was cultured on a YGP agar slant at 28° C. for 10 days. Spores were collected from the mycelial mat and suspended in Sabouraud broth containing 2% of Tween 80. Groups of 3 male guinea pigs weighing between 400-500 g were used for each dose of test compound. The flanks of the animals were depilated and injured with sandpaper. The injured area was inoculated and rubbed with a glass rod on day 0 with 0.2 ml of the spore suspension containing 10^8 CFU/ml. The test compound was combined with a 1:1 mixture of polyethylene glycol 400 and 4000, and 0.3 ml of the ointment was applied to the infected area on day 1, 3 and 5. Lesions were examined on day 7 and scored as follows: 0, normal; 1, erythema; 2, erythema with whitish area; 3, erythema and numerous whitish areas; 4, erythema with confluent scaling and whitish pateches. A compound showing a mean score of 1.5 or less was considered active.
In the following Table I the antifungal activity of the test compound is reported as the EC50 value, which is the percentage drug concentration giving 50% of the score of untreated control animals. The EC50 was calculated by the method of least squares (K. Brounlee: Statistical Theory and Methodology in Science and Engineering, pages 345-349, Wiley Press, New York, 1965). In Table II a more detailed comparison on the in vivo antifungal activities of compound 3a and the isomeric prior art compound 2 are shown together with the data for compound 3b.
Treatment: 5 applications (day 0 to 4) against candida vaginal infection
and 3 applications (day 1, 3 and 5) against trichophyton skin infection

Candida albicans = Candida albicans induced vaginal infection in mice; format: in vivo, female mice; conditions: for EC50, Candida Vaginal Infection: Table I, percentage drug concentration giving 50% of the score of untreated control, intravaginal; for Score, Determination C / Score, Determination D / Score, Mean / Score, Determination A / Score, Determination B: score 0-4
Procedure: A majority of the compounds of formula 3 were evaluated together with the prior art compound of formula 2 in a Candida albicans induced vaginal infection in mice and a Trichophyton quinekeanum induced skin infection in guinea pigs. Sabouraud broth was inoculated with Candida albicans and the inoculum incubated for two days at 28° C. on a rotary shaker. Groups of four to five female mice weighing between 18-21 grams were infected intravaginally with a 0.01 ml portion of the cell suspension containing 10^8 cells/ml on day 0. The mice were treated subcutaneously with 0.5 mg of estradiol benzoate three days before and four days after infection. The test compounds were suspended in 1% carboxymethyl cellulose and 0.02 ml of the suspension was instilled intravaginally from day 0 (four hours after infection) to day 4 (5 applications). On day 7, vaginal exudate was taken by a thin glass rod and streaked on a YGP agar plate containing 100 mcg/ml of chloramphenicol. The plate was incubated for two days at 28° C. […] In the following Table I the antifungal activity of the test compound is reported as the EC50 value, which is the percentage drug concentration giving 50% of the score of untreated control animals. The EC50 was calculated by the method of least squares (K. Brounlee: Statistical Theory and Methodology in Science and Engineering, pages 345-349, Wiley Press, New York, 1965). In Table II a more detailed comparison on the in vivo antifungal activities of compound 3a and the isomeric prior art compound 2 are shown together with the data for compound 3b.

Streptococcus pneumoniae = assay: in vitro antibacterial activity (MIC), S. pneumoniae; format: cell-based; conditions: 50% Nutrient Broth + 5% human serum

`Cl.Clc1ccc(CSCSC(Cn2ccnc2)c2ccc(Cl)cc2Cl)cc1` (stereo not drawn) [Compound 3b, 1-[2-(4-Chlorobenzylthiomethylthio)-2-(2,4-dichlorophenyl)ethyl]-1H-imidazole hydrochloride] showed an MIC (Streptococcus pyogenes) of over 63 µg/mL, an MIC (S. faecalis) of over 63 µg/mL and an MIC (Staphylococcus aureus; Strain A) of over 63 µg/mL. The MIC (Staphylococcus aureus; Strain B) was over 63 µg/mL, the MIC (Staphylococcus aureus; Strain C) was over 63 µg/mL and the “EC50, Trichophyton Skin Infection” value (Trichophyton quinekeanum) was 0.053%. For the same molecule, the “EC50 (%) (95% CL), Trichophyton skin infection” value (Trichophyton quinekeanum; Table II, N = 4, 3 applications day 1, 3 and 5) was 0.053%, the “Score, Determ. F” value (Trichophyton quinekeanum; conc. 0.03%) was 3.5 and the “Score, Determ. G” value (Trichophyton quinekeanum; conc. 0.03%) was 1.3. The “Score, Mean” value (Trichophyton quinekeanum; conc. 0.03%) was 2.4, the “Score, Determ. F” value (Trichophyton quinekeanum; conc. 0.1%) was 1.0 and the “Score, Determ. G” value (Trichophyton quinekeanum; conc. 0.1%) was 0.3. The “Score, Mean” value (Trichophyton quinekeanum; conc. 0.1%) was 0.7, the “Score, Determ. F” value (Trichophyton quinekeanum; conc. 0.3%) was 0.3 and the “Score, Determ. G” value (Trichophyton quinekeanum; conc. 0.3%) was 0.3. For the same molecule, the “Score, Mean” value (Trichophyton quinekeanum; conc. 0.3%) was 0.3, the “EC50, Candida Vaginal Infection” value (Candida albicans) was 0.0011% and the “EC50 (%) (95% CL), Candida vaginal infection” value (Candida albicans; Table II, N = 5, 5 applications day 0 to 4) was 0.0011%. For the same molecule, the “Score, Determination C” value (Candida albicans; conc. 0.0003%) was 1.6, the “Score, Determination D” value (Candida albicans; conc. 0.0003%) was 3.3 and the “Score, Mean” value (Candida albicans; conc. 0.0003%) was 2.5. The “Score, Determination A” value (Candida albicans; conc. 0.001%) was 3.0, the “Score, Determination C” value (Candida albicans; conc. 0.001%) was 1.6 and the “Score, Determination D” value (Candida albicans; conc. 0.001%) was 0.4. The “Score, Mean” value (Candida albicans; conc. 0.001%) was 1.7, the “Score, Determination A” value (Candida albicans; conc. 0.003%) was 0.4 and the “Score, Determination B” value (Candida albicans; conc. 0.003%) was 2.0. The “Score, Determination C” value (Candida albicans; conc. 0.003%) was 2.2, the “Score, Determination D” value (Candida albicans; conc. 0.003%) was 0.2 and the “Score, Mean” value (Candida albicans; conc. 0.003%) was 1.2. The “Score, Determination A” value (Candida albicans; conc. 0.01%) was 1.4, the “Score, Determination B” value (Candida albicans; conc. 0.01%) was 0.6 and the “Score, Determination C” value (Candida albicans; conc. 0.01%) was 1.4. The “Score, Determination D” value (Candida albicans; conc. 0.01%) was 0, the “Score, Mean” value (Candida albicans; conc. 0.01%) was 0.85 and the “Score, Determination A” value (Candida albicans; conc. 0.03%) was 0. For the same molecule, the “Score, Determination B” value (Candida albicans; conc. 0.03%) was 0.8, the “Score, Determination C” value (Candida albicans; conc. 0.03%) was 2.4 and the “Score, Determination D” value (Candida albicans; conc. 0.03%) was 0.8. For the same molecule, the “Score, Mean” value (Candida albicans; conc. 0.03%) was 1.0, the “Score, Determination A” value (Candida albicans; conc. 0.1%) was 0.2 and the “Score, Determination B” value (Candida albicans; conc. 0.1%) was 0. The “Score, Mean” value (Candida albicans; conc. 0.1%) was 0.1, the “Score, Determination A” value (Candida albicans; conc. 0.3%) was 0 and the “Score, Determination B” value (Candida albicans; conc. 0.3%) was 0. For the same molecule, the “Score, Mean” value (Candida albicans; conc. 0.3%) was 0 and the MIC (Streptococcus pneumoniae) was over 63 µg/mL.
Work on `Clc1ccc(CSCSC(Cn2ccnc2)c2ccc(Cl)cc2Cl)c(Cl)c1.O=C(O)/C=C/C(=O)O` (stereo not drawn) [Compound 3d, 1-[2-(2,4-Dichlorobenzylthiomethylthio)-2-(2,4-dichlorophenyl)ethyl]-1H-imidazole hydrogen fumarate] yielded an MIC (Streptococcus pyogenes) of 63 µg/mL, an MIC (S. faecalis) of over 63 µg/mL and an MIC (Staphylococcus aureus; Strain A) of 0.25 µg/mL. For the same molecule, the MIC (Staphylococcus aureus; Strain B) was over 63 µg/mL, the MIC (Staphylococcus aureus; Strain C) was 0.25 µg/mL and the “EC50, Trichophyton Skin Infection” value (Trichophyton quinekeanum) was 0.078%. For the same molecule, the “EC50, Candida Vaginal Infection” value (Candida albicans) was 0.060% and the MIC (Streptococcus pneumoniae) was 63 µg/mL.
Molecule `Clc1ccc(C(Cn2ccnc2)SCSCc2ccsc2Cl)c(Cl)c1.O=C(O)C(=O)O` (stereo not drawn) [Compound 3h, 1-[2-(2-Chloro-3-thienylmethylthiomethylthio)2-(2,4-dichlorophenyl)ethyl]-1H-imidazole hydrogen oxalate] has an MIC (Streptococcus pyogenes) of 32 µg/mL, an MIC (S. faecalis) of 2 µg/mL and an MIC (Staphylococcus aureus; Strain A) of 0.5 µg/mL. For the same molecule, the MIC (Staphylococcus aureus; Strain B) was 16 µg/mL, the MIC (Staphylococcus aureus; Strain C) was 0.5 µg/mL and the “EC50, Trichophyton Skin Infection” value (Trichophyton quinekeanum) was 0.047%. For the same molecule, the “EC50, Candida Vaginal Infection” value (Candida albicans) was 0.050% and the MIC (Streptococcus pneumoniae) was 63 µg/mL.
